In the supplement of paper PMC4862054:

Key:
Conditions in all cases: incubation time: 72 h
MDA-MB-468 [1] = test: drug sensitivity score (DSS), CellTiter-Glo (DSS (AUC-based score)); higher = stronger drug effect (viability inhibition or cytotoxicity); extreme values may be limits of the assay
In short: (§1)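 For 72 h, breast cancer cell lines seeded at 20 µl suspension per well in 384-well plates were incubated with compound at 5 concentrations in 10-fold steps spanning a 10,000-fold range that differed by compound. The first reading was CellTox Green fluorescence at 485/520 nm, and the second was CellTiter-Glo luminescence after 10 min at room temperature. Both were normalised per plate to 0.1 % DMSO and a positive kill control, and the drug sensitivity score was obtained from the area under the fitted dose-response curve.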

HCC1599 [2] = test: as above
In short: as §1

CAL-85-1 [3] = test: as above
In short: as §1

CAL-148 [4] = test: as above
In short: as §1

MDA-MB-436 [5] = test: as above
In short: as §1

SK-BR-3 [6] = test: as above
In short: as §1

MDA-MB-231 [7] = test: as above
In short: as §1

BT-474 [8] = test: as above
In short: as §1

CAL-51 [9] = test: as above
In short: as §1

MDA-MB-453 [10] = test: as above
In short: as §1

MCF-10A = test: as above
In short: as §1

HDQ-P1 [11] = test: as above
In short: as §1

MDA-MB-468 [12] = test: normalised viability (% of control), CellTiter-Blue; higher = more viable cells (about 100 = DMSO control)
Experimental: (§2)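 DSRT, CellTiter-Blue viability, 72 h incubation. Signal is normalised to DMSO and benzethonium chloride controls. Value is the normalised response at dose 3.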

HCC1599 [13] = test: as above
Experimental: as §2

CAL-85-1 [14] = test: as above
Experimental: as §2

BT-549 = test: as above
Experimental: as §2

CAL-148 [15] = test: as above
Experimental: as §2

HCC1937 = test: as above
Experimental: as §2

MDA-MB-436 [16] = test: as above
Experimental: as §2

DU-4475 = test: as above
Experimental: as §2

CAL-120 = test: as above
Experimental: as §2

SK-BR-3 [17] = test: as above
Experimental: as §2

MDA-MB-231 [18] = test: as above
Experimental: as §2

BT-474 [19] = test: as above
Experimental: as §2

CAL-51 [20] = test: as above
Experimental: as §2

MDA-MB-453 [21] = test: as above
Experimental: as §2

HDQ-P1 [22] = test: as above
Experimental: as §2

MFM-223 = test: as above
Experimental: as §2

Hs578T = test: as above
Experimental: as §2

SMILES: c1cc(CN2CCCNCCNCCCNCC2)ccc1CN1CCCNCCNCCCNCC1 [Plerixafor]
- drug sensitivity score (MDA-MB-468 [1]): 0
- drug sensitivity score (HCC1599 [2]): 0
- drug sensitivity score (CAL-85-1 [3]): 0
- drug sensitivity score (CAL-148 [4]): 0
- drug sensitivity score (MDA-MB-436 [5]): 0
- drug sensitivity score (SK-BR-3 [6]): 0
- drug sensitivity score (MDA-MB-231 [7]): 0
- drug sensitivity score (BT-474 [8]): 0
- drug sensitivity score (CAL-51 [9]): 0
- drug sensitivity score (MDA-MB-453 [10]): 0
- drug sensitivity score (MCF-10A): 0
- drug sensitivity score (HDQ-P1 [11]): 0
- normalised viability (MDA-MB-468 [12]; 25 nM): 98.5%
- normalised viability (HCC1599 [13]; 25 nM): 101%
- normalised viability (CAL-85-1 [14]; 2.5 nM): 96.9%
- normalised viability (BT-549; 25 nM): 117%
- normalised viability (CAL-148 [15]; 2.5 nM): 92.3%
- normalised viability (HCC1937; 25 nM): 102%
- normalised viability (MDA-MB-436 [16]; 25 nM): 95.7%
- normalised viability (DU-4475; 2.5 nM): 93.1%
- normalised viability (CAL-120; 25 nM): 80.1%
- normalised viability (SK-BR-3 [17]; 25 nM): 84.3%
- normalised viability (MDA-MB-231 [18]; 25 nM): 93.9%
- normalised viability (BT-474 [19]; 25 nM): 108%
- normalised viability (CAL-51 [20]; 2.5 nM): 100%
- normalised viability (MDA-MB-453 [21]; 2.5 nM): 106%
- normalised viability (HDQ-P1 [22]; 2.5 nM): 112%
- normalised viability (MFM-223; 25 nM): 92.6%
- normalised viability (Hs578T; 25 nM): 93.4%

SMILES: C[C@]12C=CC(=O)C=C1CC[C@@H]1[C@@H]2[C@@H](O)C[C@@]2(C)[C@H]1CC[C@]2(O)C(=O)CO [Prednisolone]
- drug sensitivity score (MDA-MB-468 [1]): 0
- drug sensitivity score (HCC1599 [2]): 0
- drug sensitivity score (CAL-85-1 [3]): 0
- drug sensitivity score (CAL-148 [4]): 0
- drug sensitivity score (MDA-MB-436 [5]): 0
- drug sensitivity score (SK-BR-3 [6]): 0
- drug sensitivity score (MDA-MB-231 [7]): 0
- drug sensitivity score (BT-474 [8]): 0
- drug sensitivity score (CAL-51 [9]): 0
- drug sensitivity score (MDA-MB-453 [10]): 0
- drug sensitivity score (MCF-10A): 0
- drug sensitivity score (HDQ-P1 [11]): 2.08
- normalised viability (MDA-MB-468 [12]; 100 nM): 108%
- normalised viability (HCC1599 [13]; 100 nM): 102%
- normalised viability (CAL-85-1 [14]; 10 nM): 109%
- normalised viability (BT-549; 100 nM): 104%
- normalised viability (CAL-148 [15]; 10 nM): 111%
- normalised viability (HCC1937; 100 nM): 94%
- normalised viability (MDA-MB-436 [16]; 100 nM): 96.6%
- normalised viability (DU-4475; 10 nM): 101%
- normalised viability (CAL-120; 100 nM): 79.9%
- normalised viability (SK-BR-3 [17]; 100 nM): 60.8%
- normalised viability (MDA-MB-231 [18]; 100 nM): 114%
- normalised viability (BT-474 [19]; 100 nM): 102%
- normalised viability (CAL-51 [20]; 10 nM): 98.4%
- normalised viability (MDA-MB-453 [21]; 10 nM): 105%
- normalised viability (HDQ-P1 [22]; 10 nM): 108%
- normalised viability (MFM-223; 100 nM): 97%
- normalised viability (Hs578T; 100 nM): 81.3%
